Measured values taken from ChEMBL document CHEMBL1147791, “Polyamines and the NMDA receptor: modifying intrinsic activities with aromatic substituents” (Bioorg Med Chem Lett, 2006).

Legend:
Assay type in all cases: protein-complex assay
[1] = target: T1, Glutamate NMDA receptor (Rattus norvegicus) (UniProt P35439+Q00959+Q00960+Q00961+Q62645+Q8VHN2+Q9R1M7); experiment: Attenuation at rat NMDA receptor assessed as ratio of inhibition of [3H]MK-801 binding to NMDA receptor in presence to absence of spermine
[2] = target: Glutamate NMDA receptor; experiment: Inhibition of [3H]MK-801 binding to rat NMDA receptor
[3] = target: Glutamate NMDA receptor; experiment: (§1) Stimulation of [3H]MK-801 binding to rat NMDA receptor
[4] = target: T1, Glutamate NMDA receptor (Rattus norvegicus); experiment: as §1

Row | Structure (SMILES) | Ratio IC50 [1] | IC50 [2] [µM] | EC50 [3] [µM] | Activity [4] [%]
1 | CC(C)NCCCN(CCCCN(CCCNC(C)C)Cc1ccc2ccccc2c1)Cc1ccc2ccccc2c1 | 0.48 | 44.6 | – | –
2 | c1ccc(CCCNCCCCN(CCCNCCCc2ccccc2)CCCc2ccccc2)cc1 | 2.03 | 9.5 | – | –
3 | O=C(NCCCCNCCCNC(=O)OCc1ccccc1)OCc1ccccc1 | > 10 | 56 | – | –
4 | NCCCN(CCCCN(CCCN)Cc1ccc2ccccc2c1)Cc1ccc2ccccc2c1 | 2.2 | 9.1 | – | –
5 | c1ccc(CCCNCCCNCCCCNCCCNCCCc2ccccc2)cc1 | 0.92 | 7.4 | – | –
6 | N=C(N)NCCCN(CCCCN(CCCNC(=N)N)CCCc1ccccc1)CCCc1ccccc1 | 0.63 | 11.2 | – | –
7 | NCCCNCCCCNCCCNCCCc1ccccc1 | 1.43 | 25.6 | – | –
8 | c1ccc2c(CNCCCCNCCCNCc3cccc4ccccc34)cccc2c1 | 2.2 | 4.37 | – | –
9 | c1ccc2cc(CN(CCCCNCCCN(Cc3ccc4ccccc4c3)Cc3cccc4ccccc34)Cc3cccc4ccccc34)ccc2c1 | 1.66 | 14.3 | – | –
10 | c1ccc(CNCCCCNCCCNCc2ccccc2)cc1 | 5.9 | 6.2 | – | –
11 | c1ccc(CCCNCCCN(CCCCN(CCCNCCCc2ccccc2)CCCc2ccccc2)CCCc2ccccc2)cc1 | 1.49 | 8.4 | – | –
12 | NCCCN(CCCCN(CCCNCCCc1ccccc1)CCCc1ccccc1)CCCc1ccccc1 | 1.44 | 13.1 | – | –
13 | c1ccc(CCCN(CCCNCCCCNCCCN(CCCc2ccccc2)CCCc2ccccc2)CCCc2ccccc2)cc1 | 1.58 | 3.9 | – | –
14 | NCCCCN(CCCN)C(=O)c1ccccc1 | > 10 | 82 | – | –
15 | CC(C)NCCCN(CCCCN(CCCN)Cc1ccc2ccccc2c1)Cc1ccc2ccccc2c1 | 1.96 | 14 | – | –
16 | NCCCCN(CCCN)Cc1ccc2ccccc2c1 | 13.1 | 9.8 | – | –
17 | NCCCCN(CCCN)C1c2ccccc2CCc2ccccc21 | 5.1 | 14.2 | – | –

Row | Structure (SMILES) | Ratio IC50 [1] | IC50 [2] [µM] | EC50 [3] [µM] | Activity [4] [%]
18 | O=C(Cc1ccccc1)NCCCNCCCCNCCCNC(=O)Cc1ccccc1 | > 10 | 103 | – | –
19 | N=C(N)NCCCN(CCCCN(CCCN)CCCc1ccccc1)CCCc1ccccc1 | 1.5 | 13 | – | –
20 | CC(C)(C)OC(=O)N(CCCN)CCCCN(CCCN)C(=O)OC(C)(C)C | 5.3 | 6680 | – | –
21 | NCCCN(CCCCN(CCCN)C(=O)OCc1ccccc1)C(=O)OCc1ccccc1 | 4.7 | 17.2 | – | –
22 | NCCCCN(CCCN)Cc1ccccc1 | – | > 300 | – | –
23 | NCCCNCCCCN(CCCN)CCCc1ccccc1 | 0.93 | 182 | 1.8 | 26
24 | c1ccc2cc(CNCCCNCCCCNCCCNCc3ccc4ccccc4c3)ccc2c1 | 2.84 | 4.7 | – | –
25 | NCCCNCCCCN(CCCN)Cc1ccc2ccccc2c1 | 1.45 | 58 | – | –
26 | O=C(NCCCCNCCCNC(=O)c1ccccc1)c1ccccc1 | – | > 300 | – | –
27 | c1ccc2cc(CN(CCCNCCCCNCCCN(Cc3ccc4ccccc4c3)Cc3ccc4ccccc4c3)Cc3ccc4ccccc4c3)ccc2c1 | 1.32 | 8.7 | – | –
28 | NCCCCN(CCCN)CCCc1ccccc1 | – | > 300 | – | –
29 | CC(C)(C)OC(=O)N(CCCN)CCCCN | – | > 300 | – | –
30 | NCCCCN(CCCN)C(=O)OCc1ccccc1 | 67 | 17.6 | – | –
31 | NCCCN(CCCCN(CCCN)CCCc1ccccc1)CCCc1ccccc1 | 2.6 | 26.7 | – | –
32 | NCCCNCCCCN(CCCN)Cc1ccccc1 | – | > 300 | 2.7 | 28
33 | NCCCN(CCCCN(CCCN)Cc1ccccc1)Cc1ccccc1 | 4.3 | 38 | – | –
34 | c1ccc(CNCCCNCCCCNCCCNCc2ccccc2)cc1 | 2.27 | 6.12 | – | –
